Square brackets hold non-standard residues; d marks the D form. Peptide text beside a SMILES is read from it. * marks the point of attachment. NHOctadecyl = CCCCCCCCCCCCCCCCCCN*; Cya = N[C@@H](CS(=O)(=O)O)C(=O)O; hPhe = N[C@@H](CCc1ccccc1)C(=O)O; Cha = N[C@@H](CC1CCCCC1)C(=O)O; Phg = N[C@H](C(=O)O)c1ccccc1; X8 = CCCCCCCCCCCCCCCCCCO*; Piperidide = C1CCN(*)CC1; X7 = O=C(CO*)OCc1ccccc1; PhAc = O=C(Cc1ccccc1)*; ODecyl = CCCCCCCCCCO*; X1 = CCCCCCCCCCCCCCO*; X4 = CCN(CC)C(=O)CO*; Bz = O=C(c1ccccc1)*; OBn = c1ccc(CO*)cc1; X5 = CCCCCCCCCCCCO*; Ahx = NCCCCCC(=O)O; X6 = O=C(O)CO*
target: VLA-4 (Homo sapiens, UniProt P05556+P13612); assay: In vitro binding assay: 51Cr-labeled Jurkat cells to solid phase-bound CS-1 compound (SEQ ID NO:1); format: cell-based; parameters: inflammatory cells that contain the VLA-4 receptor [Jurkat cells; host or cells: Jurkat cells (human T lymphoblastic line); settings: not given
Sequence (P13612 34-1032): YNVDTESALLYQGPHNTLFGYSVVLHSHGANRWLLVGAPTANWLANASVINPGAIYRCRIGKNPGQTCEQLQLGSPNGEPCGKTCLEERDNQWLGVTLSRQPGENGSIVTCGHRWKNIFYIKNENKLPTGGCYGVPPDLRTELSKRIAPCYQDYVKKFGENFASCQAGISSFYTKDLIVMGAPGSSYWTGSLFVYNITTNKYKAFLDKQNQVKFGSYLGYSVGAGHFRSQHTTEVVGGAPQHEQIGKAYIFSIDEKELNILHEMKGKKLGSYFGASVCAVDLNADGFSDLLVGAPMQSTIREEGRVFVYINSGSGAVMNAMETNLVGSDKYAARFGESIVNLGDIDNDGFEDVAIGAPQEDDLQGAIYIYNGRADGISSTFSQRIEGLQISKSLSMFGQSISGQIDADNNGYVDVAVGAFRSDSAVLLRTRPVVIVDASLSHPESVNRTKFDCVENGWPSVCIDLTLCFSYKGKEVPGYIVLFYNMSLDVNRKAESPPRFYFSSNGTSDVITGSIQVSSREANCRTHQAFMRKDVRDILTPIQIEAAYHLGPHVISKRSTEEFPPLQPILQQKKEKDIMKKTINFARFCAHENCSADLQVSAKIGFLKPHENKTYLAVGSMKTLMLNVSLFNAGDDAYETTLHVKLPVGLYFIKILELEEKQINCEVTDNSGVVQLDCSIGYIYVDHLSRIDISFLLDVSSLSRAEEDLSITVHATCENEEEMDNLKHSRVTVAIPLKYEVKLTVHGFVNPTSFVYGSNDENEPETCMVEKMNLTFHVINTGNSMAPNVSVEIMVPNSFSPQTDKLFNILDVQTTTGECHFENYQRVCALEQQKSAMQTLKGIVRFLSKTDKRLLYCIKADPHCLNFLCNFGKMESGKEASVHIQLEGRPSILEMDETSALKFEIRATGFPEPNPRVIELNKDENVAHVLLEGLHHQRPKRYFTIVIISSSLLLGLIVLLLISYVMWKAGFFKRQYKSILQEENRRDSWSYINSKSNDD
Sequence (P05556 21-798): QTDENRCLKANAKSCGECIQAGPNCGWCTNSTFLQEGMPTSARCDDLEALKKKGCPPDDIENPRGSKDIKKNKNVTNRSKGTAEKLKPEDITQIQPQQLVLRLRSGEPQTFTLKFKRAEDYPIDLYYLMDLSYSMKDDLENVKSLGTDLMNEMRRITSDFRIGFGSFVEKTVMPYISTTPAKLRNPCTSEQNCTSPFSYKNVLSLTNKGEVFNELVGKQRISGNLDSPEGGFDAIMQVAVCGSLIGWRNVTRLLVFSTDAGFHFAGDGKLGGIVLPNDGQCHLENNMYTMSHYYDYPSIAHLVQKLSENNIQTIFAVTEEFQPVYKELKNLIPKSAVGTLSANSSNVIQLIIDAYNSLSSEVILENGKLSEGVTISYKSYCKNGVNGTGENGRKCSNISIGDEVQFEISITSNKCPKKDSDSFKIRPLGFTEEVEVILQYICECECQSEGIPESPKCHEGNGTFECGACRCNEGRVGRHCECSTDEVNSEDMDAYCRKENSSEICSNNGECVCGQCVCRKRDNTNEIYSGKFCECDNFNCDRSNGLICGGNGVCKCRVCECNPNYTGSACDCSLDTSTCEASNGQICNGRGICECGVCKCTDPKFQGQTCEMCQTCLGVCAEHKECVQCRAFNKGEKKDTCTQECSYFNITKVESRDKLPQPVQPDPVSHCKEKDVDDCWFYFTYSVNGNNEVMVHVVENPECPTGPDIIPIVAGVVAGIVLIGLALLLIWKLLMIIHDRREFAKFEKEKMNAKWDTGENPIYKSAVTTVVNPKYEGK
Method: Binding inhibition is measured here as a concentration of compound that inhibits one-half the binding between a standard number of Jurkat cells and a standard amount of CS-1 compound bound to the surface of a microtiter plate well. Those concentrations are conveniently expressed as IC50 values, smaller numbers indicating a lower concentration required to inhibit 50 percent binding and therefore greater potency. Further specifics of this assay are provided hereinafter.
Jurkat cells (ATCC TIB 152), a human T lymphoblastic line, labeled with ^51 chromium were used to assay in vitro binding inhibition provided by various compounds discussed herein.
The plates were prepared as follows: The 25-mer CS-1 compound (SEQ ID NO:1) dissolved at 0.5-1 μg/ml in a buffer of 0.1M NaHCO3 at pH 9.5 that also contained 10 μg/ml of bovine serum albumin (BSA) or a conjugate of the CS-1 compound linked to ovalbumin (CS-1-OVA) dissolved at 1-2.5 μg/ml in the same buffer was used as the substrate. Each well of the microtiter plates was coated with 50 μl of substrate or buffer alone for controls. The wells were permitted to dry out completely and were then rinsed twice with PBS at pH 7.4. Non-specific binding sites of each well were then blocked using 200 μl per well of RPMI/1 percent BSA for two hours at room temperature.
Jurkat cells (3-5×10^6 cells) were placed into a 15 ml Falcon™ round-bottom tube with a cap. The tube was centrifuged, and the extra medium was then removed.
Two hundred microliters of a ^51 Cr labeling solution were added to the centrifuged cells and maintained in contact with the cells for 90-120 minutes in a warm room. […] Longer contact times provide a greater amount of labeling but lower cell viability.
The labeled cells are washed with (i) complete medium, (ii) 1 mM EDTA/PBS and then (iii) RPM1/1 percent BSA free of serum components. The cells are centrifuged after each washing. The cells are finally resuspended in serum-free RPMI/1 percent BSA at a concentration of 1×10^6 viable cells/ml, which provides a concentration that is diluted by one-half in the assay.
Inhibitor compounds are prepared as stock solutions at 20 mg/ml in DMSO in 1.5 ml cryogenic screwcap vials, and were stored at -70° C. Using Flow™ round-bottom or V-bottom microtiter plates, the inhibitor compounds were prepared at twice the assay concentration in RPMI/1 percent BSA at 60 μl/well.
Four initial dilutions were typically used.
The ^51 Cr-labeled cells ([…] at 60 μl/well) were then admixed with the diluted compound solutions. The admixtures were maintained at room temperature (about 22° C.) for 30 minutes.
One hundred microliters of each inhibitor compound/cell admixture were transferred to the substrate-coated wells. This was done in triplicate for each dilution. The resulting plates were incubated for 30 minutes at 37° C. and then washed gently three times with RPMI/1 percent BSA at 200 μl/well. Binding was observed microscopically, particularly after the second wash.
The bound cells were then lysed by the addition of a 0.5 percent solution of sodium dodecylsulfate in water at 100 μl/well. The resulting solutions were then processed for counting and calculation of IC50 values following usual procedures.
The data of Table 1 are normalized to the binding of SEQ ID NO: 3. […] Multiple assays for the same compound were averaged.

How did the “Relative Potency” value turn out when `CC(C)[C@@H]1CC[C@@H](C)C[C@H]1OCC(=O)N[C@@H](CC(=O)O)C(=O)N[C@@H](Cc1ccccc1)C(=O)N1CCC[C@@H]1C(N)=O` [1056.06] was run?
Its value is 0.

same assay, conditions: before the prodrug compound is enzymatically converted to an active form; relative to SEQ ID NO:3 = 1

With `CC(C)C[C@H](NC(=O)Cc1ccccc1)C(=O)N[C@@H](CC(=O)OCC(=O)OCc1ccccc1)C(=O)N[C@@H](Cc1ccccc1)C(=O)N1CCC[C@@H]1C(N)=O` [1067.01] (PhAc-LD(X7)F[dP]-NH2) as the compound, how does the “Relative Potency (prodrug compound)” value read?
The value was “.97”.

With `CC(C)C[C@H](NC(=O)Cc1ccccc1)C(=O)N[C@@H](CC(=O)OCC(=O)O)C(=O)N[C@@H](Cc1ccccc1)C(=O)N1CCC[C@@H]1C(N)=O` [1067.02] (PhAc-LD(X6)F[dP]-NH2) as the compound, how does the “Relative Potency (prodrug compound)” value read?
Its value is “.81”.

How did the “Relative Potency (prodrug compound)” value turn out when `CCCCCCCCCCCCCCCCCCNC(=O)CCCCCNC(=O)[C@@H]1CCCN1C(=O)[C@H](Cc1ccccc1)NC(=O)[C@H](CC(=O)O)NC(=O)[C@H](CC(C)C)NC(=O)Cc1ccccc1` [1068.01, phenylacetyl-Leu-Asp-Phe-Pro-NH(CH2)5 C (O)NHC18 H37] (PhAc-LDFP[Ahx]-NHOctadecyl) was run?
Its value is “.91”.

Which “Relative Potency (prodrug compound)” value does the source give for `CCCCCCCCCCCCCCCCCC(=O)OC1CCN(C(=O)[C@H](Cc2ccccc2)NC(=O)[C@H](CC(=O)O)NC(=O)[C@H](CC(C)C)NC(=O)Cc2ccccc2)CC1` [1068.05] here?
Its value is 0.63.

With `CCCCCCCCCC(=O)OC1CCN(C(=O)[C@H](Cc2ccccc2)NC(=O)[C@H](CC(=O)O)NC(=O)[C@H](CC(C)C)NC(=O)Cc2ccccc2)CC1` [1068.06] as the compound, how does the “Relative Potency (prodrug compound)” value read?
The value was “.63”.

With `CC(C)C[C@H](NC(=O)Cc1ccccc1)C(=O)N[C@@H](CC(=O)OCc1ccccc1)C(=O)N[C@@H](Cc1ccccc1)C(=O)N1CCC[C@@H]1C(N)=O` [1068.07] (PhAc-LD(OBn)F[dP]-NH2) as the compound, how does the “Relative Potency (prodrug compound)” value read?
The value was 0.

`CCCCCCCCCCOC(=O)C[C@H](NC(=O)[C@H](CC(C)C)NC(=O)Cc1ccccc1)C(=O)N[C@@H](Cc1ccccc1)C(=O)N1CCC[C@@H]1C(N)=O` [1068.09] (PhAc-LD(ODecyl)F[dP]-NH2) was tested. Which “Relative Potency (prodrug compound)” value did it give?
Its value is 0.

For `CCCCCCCCCCCCOC(=O)C[C@H](NC(=O)[C@H](CC(C)C)NC(=O)Cc1ccccc1)C(=O)N[C@@H](Cc1ccccc1)C(=O)N1CCC[C@@H]1C(N)=O` [1068.10] (PhAc-LD(X5)F[dP]-NH2), which “Relative Potency (prodrug compound)” value is on record?
Its value is 0.

With `CCCCCCCCCCCCCCOC(=O)C[C@H](NC(=O)[C@H](CC(C)C)NC(=O)Cc1ccccc1)C(=O)N[C@@H](Cc1ccccc1)C(=O)N1CCC[C@@H]1C(N)=O` [1068.11] (PhAc-LD(X1)F[dP]-NH2) as the compound, how does the “Relative Potency (prodrug compound)” value read?
The value was 0.

With `CCCCCCCCCCCCCCCCCCOC(=O)C[C@H](NC(=O)[C@H](CC(C)C)NC(=O)Cc1ccccc1)C(=O)N[C@@H](Cc1ccccc1)C(=O)N1CCC[C@@H]1C(N)=O` [1068.12] (PhAc-LD(X8)F[dP]-NH2) as the compound, how does the “Relative Potency (prodrug compound)” value read?
Its value is 0.

Which “Relative Potency (prodrug compound)” value does the source give for `CCN(CC)C(=O)COC(=O)C[C@H](NC(=O)[C@H](CC(C)C)NC(=O)Cc1ccccc1)C(=O)N[C@@H](Cc1ccccc1)C(=O)N1CCC[C@@H]1C(N)=O` [1068.13] (PhAc-LD(X4)F[dP]-NH2) here?
Its value is 0.

same assay, conditions: binding inhibition potency (IC50) relative to standard compound of SEQ ID NO:3 = 1; about one-tenth or less assigned zero

Which “Relative Potency” value does the source give for `NC(=O)[C@H]1CCCN1C(=O)[C@H](Cc1ccccc1)NC(=O)[C@H](CC(=O)O)NC(=O)[C@H](CC1CCCCC1)NC(=O)c1ccccc1` [896.31] (Bz-[Cha]DF[dP]-NH2) here?
Its value is 11.

`CC(C)C[C@H](NC(=O)c1ccccc1)C(=O)N[C@@H](CC(=O)O)C(=O)N[C@H](C(=O)N1CCC[C@H]1C(N)=O)C(C)C` [896.35] was tested. Which “Relative Potency” value did it give?
Its value is 16.

How did the “Relative Potency” value turn out when `CC(C)C[C@H](NC(=O)Cc1ccccc1)C(=O)N[C@@H](CS)C(=O)N[C@@H](Cc1ccccc1)C(=O)N1CCC[C@@H]1C(N)=O` [896.59] (PhAc-LCF[dP]-NH2) was run?
Its value is 0.

How did the “Relative Potency” value turn out when `CC(C)C[C@H](NC(=O)Cc1ccccc1)C(=O)N[C@@H](CC(=O)O)C(=O)N[C@H](C(=O)N1CCC[C@@H]1C(N)=O)c1ccccc1` [896.69] (PhAc-LD[Phg][dP]-NH2) was run?
The value was 61.

`CC(C)C[C@H](NC(=O)c1ccccc1)C(=O)N[C@@H](CC(=O)O)C(=O)N[C@H](C(=O)N1CCC[C@@H]1C(N)=O)C(C)C` [926.02] was tested. Which “Relative Potency” value did it give?
The value was 9.6.

Which “Relative Potency” value does the source give for `O=C(O)C[C@H](NC1CCN(C(=O)Cc2ccccc2)CC1)C(=O)N[C@@H](Cc1ccccc1)C(=O)N1CCCC1` [992.01] here?
Its value is 0.

For `CC(C)C[C@H](NC(=O)Cc1ccccc1)C(=O)N[C@@H](CC(=O)O)C(=O)N[C@@H](Cc1ccccc1)C(N)=O` [997.12] (PhAc-Leu-Asp-Phe-NH2), which “Relative Potency” value is on record?
The value was “.45”.

For `CC(C)C[C@H](NC(=O)Cc1ccccc1)C(=O)N[C@@H](CC(=O)O)C(=O)NC1Cc2ccccc2N(CCN2CCOCC2)C1=O` (stereo partly drawn) [997.18], which “Relative Potency” value is on record?
Its value is 20.

Which “Relative Potency” value does the source give for `CC(C)C[C@H](NC(=O)Cc1ccccc1)C(=O)NC(CC(=O)O)(CC(=O)O)C(=O)N[C@@H](Cc1ccccc1)C(=O)N1CCCCC1` [1026.01] here?
The value was 0.

`CC(C)C[C@H](NC(=O)Cc1ccccc1)C(=O)NC(C(=O)O)C(=O)N[C@@H](Cc1ccccc1)C(=O)N1CCCCC1` (stereo partly drawn) [1026.02] was tested. Which “Relative Potency” value did it give?
The value was 0.

How did the “Relative Potency” value turn out when `CC(C)C[C@H](NC(=O)Cc1ccccc1)C(=O)N[C@@H](CS(=O)(=O)O)C(=O)N[C@@H](Cc1ccccc1)C(=O)N1CCCCC1` [1026.06] (PhAc-Leu-[Cya]-Phe-Piperidide) was run?
The value was 0.

Which “Relative Potency” value does the source give for `CC(C)C[C@H](NC(=O)Cc1ccccc1)C(=O)N[C@@H](CP(=O)(O)O)C(=O)N[C@@H](Cc1ccccc1)C(=O)N1CCCCC1` [1026.07] here?
Its value is 0.

With `CC(C)C[C@H](NC(=O)Cc1ccccc1)C(=O)N[C@@H](CS(N)(=O)=O)C(=O)N[C@@H](Cc1ccccc1)C(=O)N1CCCCC1` [1026.08] as the compound, how does the “Relative Potency” value read?
The value was 0.

For `CC(C)CN(CC(=O)Nc1ccccc1)C(=O)CN(CC(=O)O)C(=O)CN(Cc1ccccc1)C(=O)C1CCCC1` [1032.02], which “Relative Potency” value is on record?
The value was “.63”.

How did the “Relative Potency” value turn out when `CC(C)C[C@@H](CN[C@@H](CC(=O)O)C(=O)N[C@@H](Cc1ccccc1)C(=O)N1CCCCC1)NC(=O)Cc1ccccc1` [1041.01] was run?
The value was 0.

Which “Relative Potency” value does the source give for `CC(C)C[C@H](NC(=O)Cc1ccccc1)C(=O)N[C@@H](CC(=O)O)C(=O)N1C(=O)N(Cc2ccccc2)C(=O)[C@H]1Cc1ccccc1` [1047.07] here?
The value was “.38”.

Which “Relative Potency” value does the source give for `CC(C)C[C@H](NC(=O)Cc1ccccc1)C(=O)N[C@@H](CC(=O)O)C(=O)N1C(=O)N(Cc2ccccc2)C(=O)[C@@H]1Cc1ccccc1` [1047.08] here?
Its value is “.38”.

Which “Relative Potency” value does the source give for `CC(C)C[C@H](NC(=O)Cc1ccccc1)C(=O)N[C@@H](CC(=O)O)C(=O)N[C@@H](Cc1ccccc1)C(=O)NCCCO` [1051.05] here?
The value was 25.

How did the “Relative Potency” value turn out when `NC(=O)[C@H]1CCCN1C(=O)[C@H](Cc1ccccc1)NC(=O)[C@H](CC(=O)O)NC(=O)CCCCC1CCSS1` (stereo partly drawn) [1056.09] was run?
Its value is 1.1.

Which “Relative Potency” value does the source give for `O=C(O)CC(C(=O)N[C@@H](Cc1ccccc1)C(=O)N1CCCCC1)N1CC[C@H](NC(=O)Cc2ccccc2)C1=O` (stereo partly drawn) [1057.01] here?
Its value is “.88”.

With `CC(C)C[C@H](NC(=O)Cc1ccccc1)C(=O)N[C@@H](CC(=O)O)C(=O)NC1CCCCN(CC(N)=O)C1=O` (stereo partly drawn) [1057.06] as the compound, how does the “Relative Potency” value read?
Its value is 97.

`CC(C)C[C@H](NC(=O)Cc1ccccc1)C(=O)N[C@@H](CC(=O)O)C(=O)N[C@@H](CCc1ccccc1)C(=O)N1CCC[C@@H]1C(N)=O` [1062.03] (PhAc-LD[hPhe][dP]-NH2) was tested. Which “Relative Potency” value did it give?
Its value is 93.93.

Which “Relative Potency” value does the source give for `CC(C)C[C@H](NC(=O)Cc1ccccc1)C(=O)N[C@@H](CC(=O)O)C(=O)N[C@@H](Cc1ccccc1)C(=O)N1CCSCC1` [1111.02] here?
Its value is 450.

With `CC(C)C[C@H](NC(=O)Cc1ccccc1)C(=O)N[C@@H](CC(=O)O)C(=O)N[C@@H](Cc1ccccc1)C(=O)N1CCN(CCOCCO)CC1` [1111.07] as the compound, how does the “Relative Potency” value read?
The value was 510.

Source: patent publication US5821231A, “CS-1 peptidomimetics, compositions and methods of using same” (Cytel Corporation, priority 1995, dated 1998)
